Laboratory results from US12208146B2, “Reconstituted HDL nanoparticles for delivery of radioactive agents and uses thereof” (UNIVERSITY OF NORTH TEXAS HEALTH SCIENCE CENTER, priority 2018, dated 2025).

System: PC3 cells
Assay: Cell uptake experiments with and without SR-B1 blocking by unlabeled rHDL
Type: cell-based
Settings: for total uptake: PC-3 cells
Method: PC3 cells were harvested and diluted in fresh medium (1×10^5 cells/well, 0.5 mL) and then seeded in 24-well tissue culture plates. After 24 h, the medium was removed, and the cells were incubated with 100 μL/well of phosphate buffered saline (PBS) and the following treatments per well: 2 kBq of ^99mTcO4−, and 30 μL of 1 μg/μL of ^99mTc-rHDL, ^99mTc-Liposome, and ^99mTc-HYNIC-DA for 45 min at 37° C. Then, cells were rinsed two times with 0.5 mL of ice-cold PBS. These two washes were combined and represent the ^99mTcO4^−, ^99mTc-rHDL, ^99mTc-Liposome, and ^99mTc-HYNIC-DA not bounded to cells. Cells were washed with 1 mL of PBS and later were incubated twice with 0.5 mL of Glycine-HCl (50 mM, pH 2.8). The Glycine-HCl washes were combined, these washed recovered the ^99mTcO4^−, ^99mTc-rHDL, ^99mTc-Liposome, and ^99mTc-HYNIC-DA adhered or bounded to cell membrane. Cells were washed with 1 mL of PBS, and finally were washed twice with 0.5 mL of 1.0 M NaOH (lysed cells) to recover the ^99mTcO4^−, ^99mTc-rHDL, ^99mTc-Liposome, and ^99mTc-HYNIC-DA internalized in the cytoplasm (washes were combined). Radioactivity was measured in the initial PBS, Glycine-HCl and NaOH combined washes using a NaI(Tl) detector (NML Inc. USA). The initial activity of each treatment was taken to represent 100% of activity. In parallel, the nonspecific binding was determined using 30 μL of 60 μg/μL of unlabeled rHDL, which blocked SR-B1 receptors on PC3 cells.

[O]=[99Tc](=[O])(=[O])[O-] [^99m TcO4^−]
total uptake (with SR-B1 blocking): 2.9% | total uptake (without SR-B1 blocking): 2.8% | incorporation into cells (control groups, data not shown): only marginal incorporation into cells
